This note sets out measurements from patent US20260132164A1, “PNU ANTHRACYCLINE DERIVATIVES AND METHODS OF USE THEREOF” (Merck Sharp & Dohme LLC, priority 2022, published 2026).

SMILES strings stand for the structures.

A word on the EC50: it is the concentration giving half of the maximal effect.

In one test the test system is BxPC3. The test is described as follows: CellTiter-Glo 2.0 Cytotoxicity Assay. Format: cell-based. Conditions: CellTiter-Glo 2.0 luminescence; compound added day 1, read on day 4 or 5; 3000 cells/well.
As for `COc1cccc2c1C(=O)c1c(O)c3c(c(O)c1C2=O)C[C@@](O)(C(=O)NC1CNCC1(F)F)C[C@@H]3O[C@H]1C[C@H]2[C@H](O[C@@H]3[C@@H](OC)OCCN32)[C@H](C)O1` (stereo partly drawn) [Compound 16], the EC50 turned out to be 24 nM.

Still in this test, the particulars now being: Homo sapiens, BXPC-3, CellTiter-Glo 2.0 luminescence; compound added day 1, read on day 4 or 5; 3000 cells/well.
`COc1cccc2c1C(=O)c1c(O)c3c(c(O)c1C2=O)C[C@@](O)(C(=O)N[C@H]1CCC[C@@H]1N)C[C@@H]3O[C@H]1C[C@H]2[C@H](O[C@@H]3[C@@H](OC)OCCN32)[C@H](C)O1` [Compound 80] displayed a concentration for a half-maximal effect (EC50) of 14.1 nM. `COc1cccc2c1C(=O)c1c(O)c3c(c(O)c1C2=O)C[C@@](O)(C(=O)NCCCCN)C[C@@H]3O[C@H]1C[C@H]2[C@H](O[C@@H]3[C@@H](OC)OCCN32)[C@H](C)O1` [Compound 54] showed an EC50 of 1.4 nM. Consider `COc1cccc2c1C(=O)c1c(O)c3c(c(O)c1C2=O)C[C@@](O)(C(=O)N[C@@H]1CCC[C@H]1N)C[C@@H]3O[C@H]1C[C@H]2[C@H](O[C@@H]3[C@@H](OC)OCCN32)[C@H](C)O1` [Compound 71], for which the EC50 is 8.4 nM. `COc1cccc2c1C(=O)c1c(O)c3c(c(O)c1C2=O)C[C@@](O)(C(=O)Nc1ccc(CN)cc1)C[C@@H]3O[C@H]1C[C@H]2[C@H](O[C@@H]3[C@@H](OC)OCCN32)[C@H](C)O1` [Compound 83] came in with an EC50 of 11 nM. The same measure, in the same setting: under `COc1cccc2c1C(=O)c1c(O)c3c(c(O)c1C2=O)C[C@@](O)(C(=O)N[C@@H]1CCCC[C@H]1N)C[C@@H]3O[C@H]1C[C@H]2[C@H](O[C@@H]3[C@@H](OC)OCCN32)[C@H](C)O1` [Compound 26] stands 2.7 nM; under `COc1cccc2c1C(=O)c1c(O)c3c(c(O)c1C2=O)C[C@@](O)(C(=O)N1CC(N)C1)C[C@@H]3O[C@H]1C[C@H]2[C@H](O[C@@H]3[C@@H](OC)OCCN32)[C@H](C)O1` [Compound 24], 8.3 nM. Same read-out and setting: under `COc1cccc2c1C(=O)c1c(O)c3c(c(O)c1C2=O)C[C@@](O)(C(=O)NCC[C@H]1CCCN1)C[C@@H]3O[C@H]1C[C@H]2[C@H](O[C@@H]3[C@@H](OC)OCCN32)[C@H](C)O1` [Compound 45] stands 0.6 nM; under `COc1cccc2c1C(=O)c1c(O)c3c(c(O)c1C2=O)C[C@@](O)(C(=O)NCc1cnc(N)o1)C[C@@H]3O[C@H]1C[C@H]2[C@H](O[C@@H]3[C@@H](OC)OCCN32)[C@H](C)O1` [Compound 70], 0.095 nM.

The compound `COc1cccc2c1C(=O)c1c(O)c3c(c(O)c1C2=O)C[C@@](O)(C(=O)NCCCN(C)CCCN)C[C@@H]3O[C@H]1C[C@H]2[C@H](O[C@@H]3[C@@H](OC)OCCN32)[C@H](C)O1` [Compound 14] yielded an EC50 of 11 nM.

On to `COc1cccc2c1C(=O)c1c(O)c3c(c(O)c1C2=O)C[C@@](O)(C(=O)NCC(N)C(F)F)C[C@@H]3O[C@H]1C[C@H]2[C@H](O[C@@H]3[C@@H](OC)OCCN32)[C@H](C)O1` (stereo partly drawn) [Compound 69], for which a half-maximal effect (EC50) was put at 0.16 nM. The same measure, in the same setting: under `COc1cccc2c1C(=O)c1c(O)c3c(c(O)c1C2=O)C[C@@](O)(C(=O)NCc1ccc(O)cc1)C[C@@H]3O[C@H]1C[C@H]2[C@H](O[C@@H]3[C@@H](OC)OCCN32)[C@H](C)O1` [Compound 78] stands 0.056 nM; under `COc1cccc2c1C(=O)c1c(O)c3c(c(O)c1C2=O)C[C@@](O)(C(=O)N1CC(CN2CC(N)C2)C1)C[C@@H]3O[C@H]1C[C@H]2[C@H](O[C@@H]3[C@@H](OC)OCCN32)[C@H](C)O1` [Compound 10], 124 nM; under `COc1cccc2c1C(=O)c1c(O)c3c(c(O)c1C2=O)C[C@@](O)(C(=O)NC[C@H]1CCNC1)C[C@@H]3O[C@H]1C[C@H]2[C@H](O[C@@H]3[C@@H](OC)OCCN32)[C@H](C)O1` [Compound 37], 8 nM. The same measure, in the same setting: under `COc1cccc2c1C(=O)c1c(O)c3c(c(O)c1C2=O)C[C@@](O)(C(=O)NCc1ccc(N)nc1)C[C@@H]3O[C@H]1C[C@H]2[C@H](O[C@@H]3[C@@H](OC)OCCN32)[C@H](C)O1` [Compound 72] stands 0.08 nM; under `COc1cccc2c1C(=O)c1c(O)c3c(c(O)c1C2=O)C[C@@](O)(C(=O)NC12CC(O)(C1)C2)C[C@@H]3O[C@H]1C[C@H]2[C@H](O[C@@H]3[C@@H](OC)OCCN32)[C@H](C)O1` [Compound 90], 0.23 nM; under `COc1cccc2c1C(=O)c1c(O)c3c(c(O)c1C2=O)C[C@@](O)(C(=O)NCC1(N)CC1)C[C@@H]3O[C@H]1C[C@H]2[C@H](O[C@@H]3[C@@H](OC)OCCN32)[C@H](C)O1` [Compound 64], 0.49 nM. The same measure, in the same setting: to `COc1cccc2c1C(=O)c1c(O)c3c(c(O)c1C2=O)C[C@@](O)(C(=O)NCCO)C[C@@H]3O[C@H]1C[C@H]2[C@H](O[C@@H]3[C@@H](OC)OCCN32)[C@H](C)O1` [Compound 89] belongs 0.37 nM; to `COc1cccc2c1C(=O)c1c(O)c3c(c(O)c1C2=O)C[C@@](O)(C(=O)N1CCC2(CNC2)C1)C[C@@H]3O[C@H]1C[C@H]2[C@H](O[C@@H]3[C@@H](OC)OCCN32)[C@H](C)O1` [Compound 29], 90 nM; to `COc1cccc2c1C(=O)c1c(O)c3c(c(O)c1C2=O)C[C@@](O)(C(=O)Nc1cc(N)n(C)n1)C[C@@H]3O[C@H]1C[C@H]2[C@H](O[C@@H]3[C@@H](OC)OCCN32)[C@H](C)O1` [Compound 81], 0.4 nM.

In turn, `COc1cccc2c1C(=O)c1c(O)c3c(c(O)c1C2=O)C[C@@](O)(C(=O)NCCNC(=O)[C@@H]1CCCN1)C[C@@H]3O[C@H]1C[C@H]2[C@H](O[C@@H]3[C@@H](OC)OCCN32)[C@H](C)O1` [Compound 3] registered an EC50 of 13 nM. On the same count and under the same terms, under `COc1cccc2c1C(=O)c1c(O)c3c(c(O)c1C2=O)C[C@@](O)(C(=O)NCCCNCCCNC(=O)CN)C[C@@H]3O[C@H]1C[C@H]2[C@H](O[C@@H]3[C@@H](OC)OCCN32)[C@H](C)O1` [Compound 8] stands 48 nM; under `COc1cccc2c1C(=O)c1c(O)c3c(c(O)c1C2=O)C[C@@](O)(C(=O)NC[C@H]1C[C@@H](N)C1)C[C@@H]3O[C@H]1C[C@H]2[C@H](O[C@@H]3[C@@H](OC)OCCN32)[C@H](C)O1` [Compound 31], 2.6 nM; under `COc1cccc2c1C(=O)c1c(O)c3c(c(O)c1C2=O)C[C@@](O)(C(=O)N[C@H]1C[C@H](N)C1)C[C@@H]3O[C@H]1C[C@H]2[C@H](O[C@@H]3[C@@H](OC)OCCN32)[C@H](C)O1` [Compound 42], 12 nM. On the same count and under the same terms, under `COc1cccc2c1C(=O)c1c(O)c3c(c(O)c1C2=O)C[C@@](O)(C(=O)N1CC(CN2CC(NC(=O)[C@H](C)N)C2)C1)C[C@@H]3O[C@H]1C[C@H]2[C@H](O[C@@H]3[C@@H](OC)OCCN32)[C@H](C)O1` [Compound 11] stands 822 nM. Still for that read-out and setting: under `COc1cccc2c1C(=O)c1c(O)c3c(c(O)c1C2=O)C[C@@](O)(C(=O)N[C@H]1CC[C@H](N)CC1)C[C@@H]3O[C@H]1C[C@H]2[C@H](O[C@@H]3[C@@H](OC)OCCN32)[C@H](C)O1` [Compound 59] stands 6.3 nM; under `CNCCNC(=O)[C@]1(O)Cc2c(O)c3c(c(O)c2[C@@H](O[C@H]2C[C@H]4[C@H](O[C@@H]5[C@@H](OC)OCCN54)[C@H](C)O2)C1)C(=O)c1c(OC)cccc1C3=O` [Compound 9], 17 nM. For `COc1cccc2c1C(=O)c1c(O)c3c(c(O)c1C2=O)C[C@@](O)(C(=O)NCCC(N)C(F)(F)F)C[C@@H]3O[C@H]1C[C@H]2[C@H](O[C@@H]3[C@@H](OC)OCCN32)[C@H](C)O1` (stereo partly drawn) [Compound 73], the EC50 stood at 0.2 nM. Still for that read-out and setting: under `COc1cccc2c1C(=O)c1c(O)c3c(c(O)c1C2=O)C[C@@](O)(C(=O)NC1CC2(CNC2)C1)C[C@@H]3O[C@H]1C[C@H]2[C@H](O[C@@H]3[C@@H](OC)OCCN32)[C@H](C)O1` [Compound 46] stands 18 nM; under `COc1cccc2c1C(=O)c1c(O)c3c(c(O)c1C2=O)C[C@@](O)(C(=O)NCC(C)(C)CN)C[C@@H]3O[C@H]1C[C@H]2[C@H](O[C@@H]3[C@@H](OC)OCCN32)[C@H](C)O1` [Compound 56], 1.4 nM; under `COc1cccc2c1C(=O)c1c(O)c3c(c(O)c1C2=O)C[C@@](O)(C(=O)NCC[C@@H]1CCCN1)C[C@@H]3O[C@H]1C[C@H]2[C@H](O[C@@H]3[C@@H](OC)OCCN32)[C@H](C)O1` [Compound 40], 4.3 nM.

`COc1cccc2c1C(=O)c1c(O)c3c(c(O)c1C2=O)C[C@@](O)(C(=O)NC[C@@H]1CCNC1)C[C@@H]3O[C@H]1C[C@H]2[C@H](O[C@@H]3[C@@H](OC)OCCN32)[C@H](C)O1` [Compound 58]: the EC50 worked out at 3.9 nM. In turn, `COc1cccc2c1C(=O)c1c(O)c3c(c(O)c1C2=O)C[C@@](O)(C(=O)NC[C@@H]1CNC(=O)C1)C[C@@H]3O[C@H]1C[C@H]2[C@H](O[C@@H]3[C@@H](OC)OCCN32)[C@H](C)O1` [Compound 86] came in with a concentration for a half-maximal effect (EC50) of 0.39 nM. Turning to `COc1cccc2c1C(=O)c1c(O)c3c(c(O)c1C2=O)C[C@@](O)(C(=O)NCc1ccc(N)cc1)C[C@@H]3O[C@H]1C[C@H]2[C@H](O[C@@H]3[C@@H](OC)OCCN32)[C@H](C)O1` [Compound 23], the concentration giving a half-maximal response (EC50) was found to be 0.06 nM. For `COc1cccc2c1C(=O)c1c(O)c3c(c(O)c1C2=O)C[C@@](O)(C(=O)NCCN(C)C(=O)[C@@](C)(N)C(C)C)C[C@@H]3O[C@H]1C[C@H]2[C@H](O[C@@H]3[C@@H](OC)OCCN32)[C@H](C)O1` [Compound 52], the concentration giving a half-maximal response (EC50) came out at 1.9 nM. The same measure, in the same setting: under `COc1cccc2c1C(=O)c1c(O)c3c(c(O)c1C2=O)C[C@@](O)(C(=O)NCCN1CCC(N)C1=O)C[C@@H]3O[C@H]1C[C@H]2[C@H](O[C@@H]3[C@@H](OC)OCCN32)[C@H](C)O1` (stereo partly drawn) [Compound 15] stands 64 nM; under `COc1cccc2c1C(=O)c1c(O)c3c(c(O)c1C2=O)C[C@@](O)(C(=O)N1CC2(CCNC2)C1)C[C@@H]3O[C@H]1C[C@H]2[C@H](O[C@@H]3[C@@H](OC)OCCN32)[C@H](C)O1` [Compound 28], 478 nM; under `COc1cccc2c1C(=O)c1c(O)c3c(c(O)c1C2=O)C[C@@](O)(C(=O)N1C[C@@H]2CN[C@@H]2C1)C[C@@H]3O[C@H]1C[C@H]2[C@H](O[C@@H]3[C@@H](OC)OCCN32)[C@H](C)O1` [Compound 76], 15 nM. The same measure, in the same setting: under `COc1cccc2c1C(=O)c1c(O)c3c(c(O)c1C2=O)C[C@@](O)(C(=O)N1C[C@H]2CN[C@H]2C1)C[C@@H]3O[C@H]1C[C@H]2[C@H](O[C@@H]3[C@@H](OC)OCCN32)[C@H](C)O1` [Compound 75] stands 2.9 nM.
